According to PubChem BioAssay (NCI):
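48-hour exposure; five concentrations; linearly interpolated endpoints. GI50 = concentration required for 50% inhibition of growth. At the TGI there is no net growth.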

What was measured:
Assay in all cases: NCI anticancer screen, dose series, 48 h
[1] = test system: IGROV1 ovarian
[2] = test system: ACHN renal
[3] = test system: MDA-MB-468 breast
[4] = test system: TK-10 renal
[5] = test system: NCI-H226 lung
[6] = test system: HCT-15 colon
[7] = test system: HL-60(TB) leukemia
[8] = test system: 786-0 renal
[9] = test system: NCI-H460 lung
[10] = test system: UO-31 renal
[11] = test system: NCI-H522 lung
[12] = test system: SK-OV-3 ovarian
[13] = test system: HCC-2998 colon
[14] = test system: HT29 colon
[15] = test system: SNB-19 CNS
[16] = test system: COLO 205 colon
[17] = test system: EKVX NSCLC
[18] = test system: A549 NSCLC
[19] = test system: SR leukemia
[20] = test system: SF-539 CNS
[21] = test system: T-47D breast
[22] = test system: RPMI-8226 leukemia
[23] = test system: PC-3 prostate
[24] = test system: CAKI-1 renal
[25] = test system: OVCAR-5 ovarian
[26] = test system: UACC-257 melanoma
[27] = test system: SK-MEL-28 melanoma
[28] = test system: U251 CNS
[29] = test system: RXF 393 renal
[30] = test system: SNB-75 CNS
[31] = test system: A498 renal
[32] = test system: SK-MEL-5 melanoma
[33] = test system: SF-295 CNS
[34] = test system: DU-145 prostate
[35] = test system: K-562 leukemia
[36] = test system: M14 melanoma
[37] = test system: SW-620 colon
[38] = test system: SF-268 CNS
[39] = test system: MDA-MB-231 breast
[40] = test system: HS 578T breast
[41] = test system: CCRF-CEM leukemia
[42] = test system: HOP-92 NSCLC
[43] = test system: UACC-62 melanoma
[44] = test system: OVCAR-8 ovarian
[45] = test system: SN12C renal
[46] = test system: OVCAR-4 ovarian
[47] = test system: HCT-116 colon
[48] = test system: MCF7 breast
[49] = test system: OVCAR-3 ovarian
[50] = test system: BT-549 breast
[51] = test system: LOX IMVI melanoma
[52] = test system: HOP-62 NSCLC
[53] = test system: NCI-H23 lung
[54] = test system: MOLT-4 leukemia
[55] = test system: KM12 colon
[56] = test system: MALME-3M melanoma

CN(C)c1ccnc(CNCCSC2(c3ccc(C(F)(F)F)cc3)c3ccccc3CCc3ccccc32)c1
GI50 [1]: 1400 nM
TGI [1]: 13600 nM
GI50 [2]: 909 nM
TGI [2]: 15000 nM
GI50 [3]: 293 nM
TGI [3]: 906 nM
GI50 [4]: 3910 nM
TGI [4]: 16100 nM
GI50 [5]: 2380 nM
TGI [5]: 13900 nM
GI50 [6]: 403 nM
TGI [6]: 11000 nM
GI50 [7]: 394 nM
TGI [7]: 1960 nM
GI50 [8]: 1900 nM
TGI [8]: 11200 nM
GI50 [9]: 603 nM
TGI [9]: 2540 nM
GI50 [10]: 2460 nM
TGI [10]: 16000 nM
GI50 [11]: 473 nM
TGI [11]: 4260 nM
GI50 [12]: 3320 nM
TGI [12]: 13400 nM
GI50 [13]: 537 nM
TGI [13]: 1830 nM
GI50 [14]: 1680 nM
TGI [14]: 4110 nM
GI50 [15]: 1240 nM
TGI [15]: 14300 nM
GI50 [16]: 1020 nM
TGI [16]: 2420 nM
GI50 [17]: 653 nM
TGI [17]: 12700 nM
GI50 [18]: 1300 nM
TGI [18]: 15100 nM
GI50 [19]: 345 nM
TGI [19]: 1620 nM
GI50 [20]: 675 nM
TGI [20]: 2470 nM
GI50 [21]: 3420 nM
TGI [21]: 15600 nM
GI50 [22]: 1180 nM
TGI [22]: 6420 nM
GI50 [23]: 1050 nM
TGI [23]: 12000 nM
GI50 [24]: 2110 nM
TGI [24]: 14800 nM
GI50 [25]: 2040 nM
TGI [25]: 9120 nM
GI50 [26]: 3670 nM
TGI [26]: 15900 nM
GI50 [27]: 3760 nM
TGI [27]: 15900 nM
GI50 [28]: 439 nM
TGI [28]: 3560 nM
GI50 [29]: 2170 nM
TGI [29]: 9120 nM
GI50 [30]: 1840 nM
TGI [30]: 8920 nM
GI50 [31]: 14000 nM
TGI [31]: 32100 nM
GI50 [32]: 1150 nM
TGI [32]: 2460 nM
GI50 [33]: 467 nM
TGI [33]: 2340 nM
GI50 [34]: 3080 nM
TGI [34]: 11300 nM
GI50 [35]: 336 nM
TGI [35]: 1860 nM
GI50 [36]: 465 nM
TGI [36]: 2970 nM
GI50 [37]: 446 nM
TGI [37]: 12500 nM
GI50 [38]: 3240 nM
TGI [38]: 17700 nM
GI50 [39]: 479 nM
TGI [39]: 2750 nM
GI50 [40]: 1620 nM
TGI [40]: 7580 nM
GI50 [41]: 370 nM
TGI [41]: 6350 nM
GI50 [42]: 2120 nM
TGI [42]: 11700 nM
GI50 [43]: 3240 nM
TGI [43]: 14500 nM
GI50 [44]: 739 nM
TGI [44]: 10800 nM
GI50 [45]: 590 nM
TGI [45]: 8250 nM
GI50 [46]: 4050 nM
TGI [46]: 17300 nM
GI50 [47]: 365 nM
TGI [47]: 1780 nM
GI50 [48]: 356 nM
TGI [48]: 4320 nM
GI50 [49]: 1310 nM
TGI [49]: 10500 nM
GI50 [50]: 2760 nM
TGI [50]: 7360 nM
GI50 [51]: 1140 nM
TGI [51]: 2430 nM
GI50 [52]: 2200 nM
TGI [52]: 13600 nM
GI50 [53]: 2720 nM
TGI [53]: 11800 nM
GI50 [54]: 1600 nM
TGI [54]: 4450 nM
GI50 [55]: 1260 nM
TGI [55]: 5160 nM
GI50 [56]: 1440 nM
TGI [56]: 3090 nM
